Assay results: patent US6509344B1, “Indenoisoquinolines as antineoplastic agents” (The United States of America as represented by the …, priority 1998, dated 2003)
Values belong to the compound of their own block, whether it stands above or below them.

Experiments:
HOP-62 = experiment: NCI human cancer cell line screen (COMPARE screening), Lung HOP-62; format: cell-based; conditions: Homo sapiens; HOP-62; concentration causing 50% growth inhibition; read-out: Cytotoxicity (G150 in μM) Lung HOP-62
From the text: (§1) Considering the diversity of cancer in terms of cell type, morphology, growth rate and other cellular characteristics, the U.S. National Cancer Institute (NCI) has developed a “disease-oriented” approach to anticancer activity screening (M. R. Boyd, in “Principle of Practice of Oncology” […]. Rosenberg (Eds.) Vol. 3, PPO Update, No. 10, 1989). This in vitro prescreening system is based on the measurement of anticancer cytotoxicity against human cancer cell line panels consisting of approximately 60 cell lines of major human cancers (including leukemia and slower growing tumor cells such as lung, colon, breast, skin, kidney, etc.) and is referred hereinafter as “COMPARE” screening. An important advantage of the new in vitro screening panels is the opportunity to facilitate identification of compounds that are selectively more cytotoxic to cells of certain types of cancers, thus increasing the ability to select compounds for further study with respect to specific diseases. The indenoisoquinolines were examined for antiproliferative activity against the human cancer cell lines in the National Cancer Institute screen (COMPARE screening), in which the activity of each compound was evaluated with approximately […] different cancer cell lines of diverse tumor origins.

HCT-116 = experiment: NCI human cancer cell line screen (COMPARE screening), Colon HCT-116; format: cell-based; conditions: Homo sapiens; HCT-116; concentration causing 50% growth inhibition; read-out: Cytotoxicity (G150 in μM) Colon HCT-116
From the text: as §1

SF-539 = experiment: NCI human cancer cell line screen (COMPARE screening), CNS SF-539; format: cell-based; conditions: Homo sapiens; SF-539; concentration causing 50% growth inhibition; read-out: Cytotoxicity (G150 in μM) CNS SF-539
From the text: as §1

OVCAR-3 = experiment: NCI human cancer cell line screen (COMPARE screening), Ovarian OVCAR-3; format: cell-based; conditions: Homo sapiens; OVCAR-3; concentration causing 50% growth inhibition; read-out: Cytotoxicity (G150 in μM) Ovarian OVCAR-3
From the text: as §1

SN12C = experiment: NCI human cancer cell line screen (COMPARE screening), Renal SN12C; format: cell-based; conditions: Homo sapiens; SN12C; concentration causing 50% growth inhibition; read-out: Cytotoxicity (G150 in μM) Renal SN12C
From the text: as §1

DU-145 = experiment: NCI human cancer cell line screen (COMPARE screening), Prostate DU-145; format: cell-based; conditions: Homo sapiens; DU-145; concentration causing 50% growth inhibition; read-out: Cytotoxicity (G150 in μM) Prostate DU-145
From the text: as §1

MDA-MB-435 = experiment: NCI human cancer cell line screen (COMPARE screening), Breast MDA-MB-435; format: cell-based; conditions: Homo sapiens; MDA-MB-435; concentration causing 50% growth inhibition; read-out: Cytotoxicity (G150 in μM) Breast MDA-MB-435
From the text: as §1

[1] = test system: approximately 55 different cancer cell lines of diverse tumor origins; experiment: NCI screen mean graph midpoint over all cell lines tested; format: cell-based, human; conditions: for IC50: Homo sapiens, average GI50 for all cell lines tested (approximately 55), values outside test range taken as 10^-8 or 10^-4 molar, read-out: MGM (mean graph midpoint)
From the text: as §1

topoisomerase I = biological target: T1, topoisomerase I (Homo sapiens, UniProt P11387); experiment: Topoisomerase I-mediated DNA cleavage assay (3'-end-labeled 161 bp pBluescript SK(-) fragment); format: biochemical; conditions: relative to the activity of 1 μM camptothecin
T1 sequence (P11387 1-765): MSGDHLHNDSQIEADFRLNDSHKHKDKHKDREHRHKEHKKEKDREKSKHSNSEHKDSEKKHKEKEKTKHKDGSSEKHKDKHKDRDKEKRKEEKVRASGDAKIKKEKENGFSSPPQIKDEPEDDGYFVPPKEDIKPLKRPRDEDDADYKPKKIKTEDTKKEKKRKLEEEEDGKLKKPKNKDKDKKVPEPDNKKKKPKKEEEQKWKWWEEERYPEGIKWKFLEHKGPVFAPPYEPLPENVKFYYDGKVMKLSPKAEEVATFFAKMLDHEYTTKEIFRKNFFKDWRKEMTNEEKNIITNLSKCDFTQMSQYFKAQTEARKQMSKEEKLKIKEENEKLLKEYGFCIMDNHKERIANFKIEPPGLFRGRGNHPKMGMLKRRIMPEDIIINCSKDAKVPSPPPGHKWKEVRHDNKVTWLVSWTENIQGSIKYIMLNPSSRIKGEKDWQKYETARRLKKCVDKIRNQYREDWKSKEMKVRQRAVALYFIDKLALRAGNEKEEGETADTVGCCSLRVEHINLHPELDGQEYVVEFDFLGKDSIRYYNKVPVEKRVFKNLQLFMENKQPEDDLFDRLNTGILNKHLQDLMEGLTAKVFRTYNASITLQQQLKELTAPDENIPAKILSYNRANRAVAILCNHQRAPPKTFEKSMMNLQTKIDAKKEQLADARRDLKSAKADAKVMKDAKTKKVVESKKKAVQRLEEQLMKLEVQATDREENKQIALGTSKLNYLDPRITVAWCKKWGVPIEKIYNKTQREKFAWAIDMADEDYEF
Method: Topoisomerase I-Mediated DNA Cleavage Reactions Using 3′-End-labeled 161 BP Plasmid DNA
The 161 bp fragment from pBluescript SK(−) phagemid DNA (Stratagene, La Jolla, Calif.) was cleaved with the restriction endonuclease Pvu II and Hind III (New England Biolabs, Beverly, Mass.) in supplied NE buffer 2 (10 μL reactions) for 1 h at 37° C., separated by electrophoresis in a 1% agarose gel made in 1×TBE buffer. The 161 bp fragment was eluted from the gel slice (centrilutor by Amicon) and concentrated in a centricon 50 centrifugal concentrator (Amicon, Beverly, Mass.). Approximately 200 ng of the fragment was 3′-end-labeled at the Hind III site by fill-in reaction with [alpha-^32P]-dCTP and 0.5 mM dATP, dGTP, and dTTP, in React 2 buffer (50 mM Tris-HCl, pH 8.0, […], 50 mM NaCl) with 0.5 units of DNA polymerase I (Klenow fragment). Labeling reactions were followed by phenol-chloroform extraction and ethanol precipitation. The resulting 161 bp 3′-endlabeled DNA fragment was resuspended in water. Aliquots (approximately 50,000 dpm/reaction) were incubated with topoisomerase I at 30° C. for 15 min in the presence of the indicated drug. Reactions were terminated by adding 0.5% SDS. After ethanol precipitation, the samples were resuspended in loading buffer (80% formamide, 10 mM sodium hydroxide, 1 mM sodium EDTA, 0.1% xylene cyanol, and 0.1% bromophenol blue, pH 8.0), and separated in a denaturing gel (16% polyacrylamide, 7 M urea) run at 51° C. The gel was dried and visualized by using a Phosphoimager and ImageQuant software (Molecular Dynamics, Sunnyvale, Calif.).

UACC-62 = experiment: NCI human cancer cell line screen (COMPARE screening), Melanoma UACC-62; format: cell-based; conditions: Homo sapiens; UACC-62; concentration causing 50% growth inhibition; read-out: Cytotoxicity (G150 in μM) Melanoma UACC-62
From the text: as §1

Top 1 Cleavage (topoisomerase I): 0
Structure (SMILES): CCN1Cc2cc(OC)c(OC)cc2[C@@H]2[C@H]1c1cc3c(cc1[C@@H]2O)OCO3 [Compound 25, 6-Ethyl-5,6,12α,13α-tetrahydro-11β-hydroxy-2,3-dimethoxy-8,9-(methylenedioxy)-11H-indeno[1,2-c]isoquinoline]
IC50 (HOP-62): 30 µM
IC50 (HCT-116): 35 µM
IC50 (SF-539): 50 µM
IC50 (OVCAR-3): 24 µM
IC50 (SN12C): 26 µM
IC50 (DU-145): 41 µM
IC50 (MDA-MB-435): 25 µM
IC50 [1]: 31 µM

Top 1 Cleavage (topoisomerase I): 0
Structure (SMILES): CCN1C(=O)c2cc(OC)c(OC)cc2[C@@H]2[C@H]1c1cc3c(cc1[C@@H]2O)OCO3 [Compound 24, 6-Ethyl-5,6,12α,13α-tetrahydro-11β-hydroxy-2,3-dimethoxy-8,9-(methylenedioxy)-5-oxo-11H-indeno[1,2-c]isoquinoline]
IC50 (HOP-62): > 100 µM
IC50 (HCT-116): > 100 µM
IC50 (SF-539): > 100 µM
IC50 (OVCAR-3): > 100 µM
IC50 (SN12C): > 100 µM
IC50 (DU-145): > 100 µM
IC50 (MDA-MB-435): > 100 µM
IC50 [1]: 100 µM

Structure (SMILES): CCCCn1c2c(c3cc(OC)c(OC)cc3c1=O)C(=O)c1cc3c(cc1-2)OCO3 [Compound 13d, 6-(1-Butyl)-5,6-dihydro-5,11-diketo-2,3-dimethoxy-8,9-methylenedioxy11H-indeno[1,2-c]isoquinoline]
IC50 (HOP-62): 16 µM
IC50 (HCT-116): 45 µM
IC50 (UACC-62): 21 µM
IC50 (OVCAR-3): 78 µM
IC50 (DU-145): 16 µM
IC50 (MDA-MB-435): > 100 µM
IC50 [1]: 42 µM
Top 1 Cleavage (topoisomerase I): + (those compounds having between 20% and 50% of the activity of 1 μM camptothecin)

Structure (SMILES): COc1cc2c3c(n(C)c(=O)c2cc1OC)-c1cc(OC)c(OS(C)(=O)=O)cc1C3=O [Compound 23, 5,6-Dihydro-5,11-diketo-2,3,8-trimethoxy-6-methyl-9[(methylsulfonyl)oxy]-(11H)indeno[1,2-c]isoquinoline]
Top 1 Cleavage (topoisomerase I): ± (those compounds having less than 20% of the activity of 1 μM camptothecin)

Top 1 Cleavage (topoisomerase I): 0
Structure (SMILES): CCn1c2c(c3ccccc3c1=O)C(=O)c1ccccc1-2 [Compound 3, 6-Ethyl-5,6-dihydro-5,11-diketo-11H-indeno[1,2-c]isoquinoline]

Structure (SMILES): Cn1c2c(c3ccccc3c1=O)C(=O)c1cc3c(cc1-2)OCO3 [Compound 13a, 5,6-Dihydro-5,11-diketo-6-methyl-8,9-methylenedioxy-11H-indeno[1,2-c]isoquinoline]
IC50 (HOP-62): 22 µM
IC50 (HCT-116): 54 µM
IC50 (UACC-62): > 100 µM
IC50 (OVCAR-3): > 100 µM
IC50 (SN12C): > 100 µM
IC50 (DU-145): > 100 µM
IC50 [1]: 45 µM
Top 1 Cleavage (topoisomerase I): + (those compounds having between 20% and 50% of the activity of 1 μM camptothecin)

Top 1 Cleavage (topoisomerase I): 0
Structure (SMILES): COc1cc2c(c(OC)c1OC)C(=O)c1c-2n(C)c(=O)c2ccccc12 [Compound 13j, 5,6-Dihydro-5,11-diketo-6-methyl-8,9,10-trimethoxy-11H-indeno[1,2-c]isoquinoline]
IC50 (HOP-62): 24 µM
IC50 (SF-539): > 100 µM
IC50 (OVCAR-3): > 100 µM
IC50 (SN12C): > 100 µM
IC50 (DU-145): > 100 µM
IC50 [1]: 78 µM

Top 1 Cleavage (topoisomerase I): 0
Structure (SMILES): CCCn1c2c(c3ccccc3c1=O)C(=O)c1ccccc1-2 [Compound 4, 5,6-Dihydro-5,11-diketo-6-propyl-11H-indeno[1,2-c]isoquinoline]

Structure (SMILES): COc1cc2c3c(n(Cc4ccccc4)c(=O)c2cc1OC)-c1cc2c(cc1C3=O)OCO2 [Compound 13e, 6-Benzyl-5,6-dihydro-5,11-diketo 2,3-dimethoxy-8,9-methylenedioxy-11H-indeno[1,2-c]isoquinoline]
IC50 (HOP-62): 12 µM
IC50 (HCT-116): > 100 µM
IC50 (UACC-62): 50 µM
IC50 (OVCAR-3): > 100 µM
IC50 (DU-145): 4 µM
IC50 (MDA-MB-435): > 100 µM
IC50 [1]: 42 µM
cytotoxicity (MGM) relative to lead compound 1 ([1]; comparison in words): lower MGM than the lead compound 1
Top 1 Cleavage (topoisomerase I): ± (those compounds having less than 20% of the activity of 1 μM camptothecin)
